Measured values published in patent US8535740B2, “Compositions from Nigella sativa” (priority 2002, dated 2013).
Values after ≈ are worked out from the molar mass of the structure shown.

Tests used:
[1] = tested on: iNOS-mediated NO biosynthesis in C2C12 myocytes; assay: LTI cytokine-stimulated NO biosynthesis in C2C12 myocytes; format: cell-based, murine; settings: Mus musculus, value computed on the basis of TQ content, LPS/TNFα/IFγ stimulation 20 hours, (95% confidence interval), read-out: Median Inhibitory Concentration for iNOS-mediated NO biosynthesis, C2C12 Myocytes
Description: Mouse C2C12 myoblasts (American Type Culture Collection, Manassas, Va.) were maintained in Dulbecco's modified Eagle's medium (DMEM) supplemented with 10% fetal calf serum (FCS), 50 units/ml penicillin and 50 μg/ml streptomycin. As cells reached confluence, the medium was switched to the differentiation medium containing DMEM and 2% horse serum. Medium was changed every other day. […] At the end of the treatment period, media were sampled for determination of NO. […] Determination of nitrite in waters by microplate fluorescence spectroscopy and HPLC with fluorescence detection. Anal Chem. Aug. 1 1999; 71(15):3003-3007). In a separate, black-walled, 96-well, microtiter plate, a 7 μL aliquot of a 4.8×10^-4 mol NBDM/L solution was added to 200 μL of the supernatant media followed by the addition of 15 μL of concentrated phosphoric acid. After a reaction time of 30 minutes at ambient temperature, the fluorescence was read with 485 nm excitation filter and a 530 nm emission filter in a Packard Fluorocount spectrofluorometer (Model #BF10000, Meridan, Conn.). […] Quantitative analysis of dose-effect relationships: the combined effects of multiple drugs or enzyme inhibitors.

Caco-2 monolayers = assay: LPS/H2O2-mediated loss of transepithelial electrical resistance in Caco-2 monolayers; format: cell-based, human
Excerpt: Caco-2 Cells—The protocol for growing and differentiation the human Caco-2 colon andenocarcinoma cells was a modification of Protocol 3 as described by Yamashita et al. [Yamashita, S., Konishi, K., Yamazaki, Y., Taki, Y., Sakane, T., Sezaki, H., and Furuyama, Y. (2002) New and better protocols for a short-term Caco-2 cell culture system, J Pharm Sci 91, 669-679]. Caco-2 Human Colon Adenocarcinoma cells were obtained from ATCC (Rockville, Md.; catalog #HTB-37) and maintained in a growth media: DMEM (Dulbecco's Modified Eagles Medium 1×) containing L-glutamine, glucose; Cellgro catalog #35-010CV with the following additions: (1) Penicillin (5,000 IU/mL)/Streptomycin (5,000 μg/mL) Cellgro catalog #30-001C1, (2) 10% FBS—Fetal Bovine Serum, Characterized; Hyclone catalog #SH30071.3, and (3) 1% NEAA—Non Essential Amino Acids; Cellgro catalog #25-025-CI; cells were cultured at 37 C in a humidified air-5% CO2 atmosphere in T175 flasks.
Differentiation of Caco-2 cells to intestinal epithelial cells—BIOCOAT^R HTS Caco-2 Assay System kits (Becton Dickinson, N.J.; catalog #354801) consisting of 24-well fibrillar collagen coated inserts and feeder trays were used in all experiments and plated as follows. Media was removed from the T175 flasks and cells were washed with 10 mLs PBS (phosphate buffered saline 1× without Ca^++, without Mg^++; Cellgro #25-053-CI). […]

For `CC1=CC(=O)C(C(C)C)=CC1=O` [Thymoquinone (Sigma), thymoquinone], the IC50 [1] was 1.9 µg/mL (≈ 11.6 µM), the “Relative Loss of TEER” value (Caco-2 monolayers; 10 uM H2O2 + 50 μg/mL LPS, three hours, positive control set to 100, each material at its tabulated concentration (TQ 5.0, NS8 0.11, NS9 0.99, NS10 0.012, NSSpent#2 0.0005 μg TQ equivalents/mL; Spent#1 5 μg/mL)) was 111 and the “effect on LPS/H2O2-mediated loss of TEER” value (Caco-2 monolayers; concentrations of Table 6) was “no effect”.
